Measurements: ChEMBL document CHEMBL1201862, “PubChem BioAssay data set” (2004)
The source made the active and inactive calls.

Columns and labels:
[1] = intracellular Trypanosoma cruzi inhibitors in host cells – cell-based, plate reader, cherry-pick samples, set 3, dose response (AID 651818); assay type: functional;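 further: compounds incubated with infected cells for about four days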
[2] = target: FAD-linked sulfhydryl oxidase ALR (Homo sapiens, UniProt P55789); assay: ALR-catalysed DTT oxidation blockers – biochemical, H2O2 detection, luminescence, cherry-pick, dose response (AID 493248)
[3] = target: T1, Polyadenylate-binding protein 1 (Homo sapiens, UniProt P11940); assay: MLLE binding blockers, Cy5 peptide tracer – biochemical, fluorescence polarization, Cy5-PAM2 peptide, secondary, miRNA deadenylation inhibitor project, dose response (AID 602260); assay type: functional; settings: read-out: IC50_Mean
[4] = target: T1, Polyadenylate-binding protein 1; assay: MLLE domain peptide-binding blockers, IC50 – biochemical, fluorescence polarization, FITC-PAM2 peptide, dose response (AID 602259); assay type: functional; settings: read-out: IC50_Mean
SN12K1 = assay: cells; assay type: functional; settings: Homo sapiens
P388/ADR = assay: cells; assay type: functional; settings: Mus musculus
P388 = assay: cells; assay type: functional; settings: Mus musculus
[5] = target: T2, Corticotropin-releasing factor receptor 2/Corticotropin-releasing factor-binding protein (Homo sapiens, UniProt P24387+Q13324); assay: Dose Response confirmation of uHTS hits for small molecule antagonists of the CRF-binding protein and CRF-R2 receptor complex.; assay type: functional; settings: read-out: IC50_Mean
T2 sequence (Q13324 whole entry): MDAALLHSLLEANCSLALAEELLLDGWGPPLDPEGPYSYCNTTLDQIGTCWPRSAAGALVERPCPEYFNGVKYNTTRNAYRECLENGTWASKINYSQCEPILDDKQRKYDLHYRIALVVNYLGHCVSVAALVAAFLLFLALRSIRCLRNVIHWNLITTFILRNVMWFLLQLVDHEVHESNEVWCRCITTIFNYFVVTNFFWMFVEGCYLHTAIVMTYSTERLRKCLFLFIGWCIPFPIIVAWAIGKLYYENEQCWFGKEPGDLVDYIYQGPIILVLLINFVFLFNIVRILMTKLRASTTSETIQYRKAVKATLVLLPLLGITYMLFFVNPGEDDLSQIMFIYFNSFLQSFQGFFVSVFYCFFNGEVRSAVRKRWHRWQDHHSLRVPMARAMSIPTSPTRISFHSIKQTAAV
T2 sequence (P24387 whole entry): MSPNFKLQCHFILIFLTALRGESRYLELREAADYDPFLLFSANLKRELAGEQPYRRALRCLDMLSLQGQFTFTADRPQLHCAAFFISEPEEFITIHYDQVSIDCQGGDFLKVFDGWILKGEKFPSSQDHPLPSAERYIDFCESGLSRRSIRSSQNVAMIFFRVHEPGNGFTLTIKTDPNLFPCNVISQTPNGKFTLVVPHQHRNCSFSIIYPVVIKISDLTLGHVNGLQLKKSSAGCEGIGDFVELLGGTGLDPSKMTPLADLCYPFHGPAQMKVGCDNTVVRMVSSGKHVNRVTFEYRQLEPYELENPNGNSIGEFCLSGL

[6] = target: T2, Corticotropin-releasing factor receptor 2/Corticotropin-releasing factor-binding protein; assay: activators of CRF receptor 2 with binding protein – uHTS hits, confirmation (AID 602473); assay type: functional; settings: read-out: EC50_Mean
[7] = target: T3, Rac GTPase-activating protein 1 (Homo sapiens, UniProt Q9H0H5); assay: blockers of MgcRacGAP-driven Rac1 GTP hydrolysis – biochemical, ADP Hunter fluorescence, primary and confirmatory, confirmation (AID 624330); assay type: functional
T3 sequence (Q9H0H5 whole entry): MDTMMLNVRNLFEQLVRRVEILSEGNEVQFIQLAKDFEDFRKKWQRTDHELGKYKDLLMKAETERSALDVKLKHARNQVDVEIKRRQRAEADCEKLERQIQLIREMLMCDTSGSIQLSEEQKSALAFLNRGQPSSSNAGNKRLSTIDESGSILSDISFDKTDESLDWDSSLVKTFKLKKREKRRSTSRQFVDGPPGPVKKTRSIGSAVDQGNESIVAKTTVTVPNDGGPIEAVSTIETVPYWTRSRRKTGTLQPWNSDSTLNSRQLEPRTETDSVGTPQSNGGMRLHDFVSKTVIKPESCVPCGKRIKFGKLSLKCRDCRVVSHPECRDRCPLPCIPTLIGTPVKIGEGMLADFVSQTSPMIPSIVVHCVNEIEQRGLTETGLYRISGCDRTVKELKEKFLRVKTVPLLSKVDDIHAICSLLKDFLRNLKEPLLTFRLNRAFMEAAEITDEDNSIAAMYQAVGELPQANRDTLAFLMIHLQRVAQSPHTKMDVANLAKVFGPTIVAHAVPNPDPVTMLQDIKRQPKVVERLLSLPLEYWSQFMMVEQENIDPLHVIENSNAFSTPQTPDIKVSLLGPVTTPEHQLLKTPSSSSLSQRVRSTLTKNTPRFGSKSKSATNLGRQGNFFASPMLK

[8] = target: T4, High affinity choline transporter 1 (Homo sapiens, UniProt Q9GZV3); assay: human choline transporter blockers, potency – cell-based, 5-point CRC, membrane potential dye, dose response (AID 504840); assay type: functional
T4 sequence (Q9GZV3 whole entry): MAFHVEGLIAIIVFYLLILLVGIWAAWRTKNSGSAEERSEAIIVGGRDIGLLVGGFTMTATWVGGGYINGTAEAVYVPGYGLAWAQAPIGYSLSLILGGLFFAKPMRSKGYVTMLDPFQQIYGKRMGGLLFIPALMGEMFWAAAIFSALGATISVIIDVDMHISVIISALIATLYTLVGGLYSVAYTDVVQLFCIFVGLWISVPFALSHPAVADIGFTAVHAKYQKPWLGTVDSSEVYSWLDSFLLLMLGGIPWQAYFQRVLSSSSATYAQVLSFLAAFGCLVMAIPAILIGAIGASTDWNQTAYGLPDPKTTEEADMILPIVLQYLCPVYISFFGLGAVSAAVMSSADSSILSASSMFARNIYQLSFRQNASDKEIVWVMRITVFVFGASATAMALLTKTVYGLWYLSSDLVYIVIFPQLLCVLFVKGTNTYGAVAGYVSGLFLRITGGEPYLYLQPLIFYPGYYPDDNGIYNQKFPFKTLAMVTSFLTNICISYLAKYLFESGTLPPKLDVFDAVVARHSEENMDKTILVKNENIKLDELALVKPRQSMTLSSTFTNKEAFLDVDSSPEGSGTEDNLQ

[9] = target: T5, Calpain-2 catalytic subunit (Sus scrofa, UniProt P43367); assay: m-calpain protease blockers, concentration series – biochemical, fluorogenic peptide substrate, dose response (AID 1420); assay type: functional
T5 sequence (P43367 whole entry): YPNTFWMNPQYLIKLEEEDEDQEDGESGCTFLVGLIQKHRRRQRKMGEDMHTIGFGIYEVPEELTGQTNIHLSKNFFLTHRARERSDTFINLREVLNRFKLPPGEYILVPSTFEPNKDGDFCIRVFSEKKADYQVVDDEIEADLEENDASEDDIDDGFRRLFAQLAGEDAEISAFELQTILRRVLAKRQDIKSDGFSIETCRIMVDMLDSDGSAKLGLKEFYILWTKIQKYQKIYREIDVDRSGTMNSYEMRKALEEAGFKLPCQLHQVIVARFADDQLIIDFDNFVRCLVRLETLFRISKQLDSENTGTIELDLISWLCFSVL

T1 sequence (P11940 whole entry, the tested form may be a part): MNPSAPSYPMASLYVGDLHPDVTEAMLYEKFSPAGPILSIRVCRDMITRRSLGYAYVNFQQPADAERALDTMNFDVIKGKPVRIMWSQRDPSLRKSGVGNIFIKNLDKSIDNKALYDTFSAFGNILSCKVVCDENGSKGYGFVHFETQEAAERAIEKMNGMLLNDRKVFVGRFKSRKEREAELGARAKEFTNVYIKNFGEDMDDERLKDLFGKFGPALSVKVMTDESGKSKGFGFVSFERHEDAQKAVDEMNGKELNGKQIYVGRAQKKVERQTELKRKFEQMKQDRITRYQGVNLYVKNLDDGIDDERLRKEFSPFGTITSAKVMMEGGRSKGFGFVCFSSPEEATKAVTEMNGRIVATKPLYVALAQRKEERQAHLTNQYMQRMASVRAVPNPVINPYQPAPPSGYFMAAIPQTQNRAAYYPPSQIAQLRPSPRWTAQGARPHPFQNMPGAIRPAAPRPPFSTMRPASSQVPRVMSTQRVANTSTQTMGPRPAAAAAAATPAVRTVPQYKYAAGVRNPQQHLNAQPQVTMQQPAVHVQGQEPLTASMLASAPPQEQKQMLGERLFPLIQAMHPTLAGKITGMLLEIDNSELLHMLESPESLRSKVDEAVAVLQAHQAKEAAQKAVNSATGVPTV
Chain of FAD-linked sulfhydryl oxidase ALR (P55789 whole entry): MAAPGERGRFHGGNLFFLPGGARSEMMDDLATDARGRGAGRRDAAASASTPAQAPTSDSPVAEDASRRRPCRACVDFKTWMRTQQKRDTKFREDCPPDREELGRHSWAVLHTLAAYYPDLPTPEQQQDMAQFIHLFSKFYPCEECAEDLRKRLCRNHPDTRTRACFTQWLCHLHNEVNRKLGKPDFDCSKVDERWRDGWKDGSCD

With C[C@@H]1CCCCO[C@H](CN(C)C(=O)Nc2ccc(C(F)(F)F)cc2)[C@@H](C)CN([C@H](C)CO)C(=O)c2cc(NS(=O)(=O)c3ccc(Cl)cc3)ccc2O1 the AC50 [1] was 4.76 µM (active).
In the case of C[C@H](CO)N1C[C@H](C)[C@H](CN(C)Cc2ccc(C(=O)Nc3ccccc3N)cc2)Oc2c(NC(=O)Nc3ccc(F)cc3)cccc2C1=O, the AC50 [1] is reported as 1.06 µM (active).
For Fc1ccc(-c2ccnc(S)n2)cc1, the AC50 [2] was 0.301 µM (active), the IC50 [3] was > 66 µM (inactive) and the IC50 [4] was > 66 µM (inactive).
For C[C@@H]1CN([C@@H](C)CO)C(=O)c2cccc(NC(=O)Nc3ccc4c(c3)OCO4)c2O[C@@H]1CN(C)Cc1ccc(Oc2ccccc2)cc1, the AC50 [1] was 3.77 µM (active).
With CC1CCN(C(=S)c2ccc([N+](=O)[O-])cc2)CC1 the IC50 [3] was > 66 µM (inactive) and the IC50 [4] was > 66 µM (inactive).
For Cc1cc(N2CCN(c3ccccc3)CC2)nc(N)n1, the AC50 [2] was 4.38 µM (active).
For CC(C)[C@](O)(C(=O)OCC1=CCN2CC[C@@H](O)[C@@H]12)[C@H](C)O, the GI50 (SN12K1) was > 375 µM (inactive), the GI50 (P388/ADR) was > 375 µM (inactive) and the GI50 (P388) was > 375 µM (inactive).
For C[C@H](CO)N1C[C@H](C)[C@@H](CN(C)Cc2ccc(C(=O)Nc3ccccc3N)cc2)Oc2c(NS(=O)(=O)c3ccccc3)cccc2C1=O, the AC50 [1] was 4.71 µM (active).
In the case of C=C1C(C)C2C(Cc3ccccc3)NC(=O)C23C(OC(C)=O)C=CC(C)(O)C(=O)C(C)C/C=C/C3C1O (stereo unspecified), the GI50 (SN12K1) is reported as 0.0619 µM (active), the GI50 (P388/ADR) is reported as 14.4 µM (inactive) and the GI50 (P388) is reported as 0.454 µM (active).
In the case of CC(=O)NNc1nc(-c2ccc(NC(C)=O)cc2)cs1, the AC50 [2] is reported as 0.58 µM (active).
In the case of Cc1cccc(C)c1NC(=S)Nc1ccc(F)cc1, the IC50 [5] is reported as > 47.1 µM (inactive), the EC50 [6] is reported as > 53 µM (inactive) and the IC50 [3] is reported as > 66 µM (inactive). For the same compound, the IC50 [4] was > 66 µM (inactive).
In the case of O=C1CC(=O)N(c2ccccc2)N1c1ccccc1, the AC50 [2] is reported as 4.37 µM (active).
In the case of COc1cc(/C=N/n2c(S)nnc2C2CCCCC2)ccc1O, the AC50 [2] is reported as 2.3 µM (active) and the IC50 [7] is reported as 47.9 µM (active).
In the case of Cc1ccc(S(=O)(=O)N2[C@@H](c3ccc(Cl)cc3)C(C(=O)O)=CC[C@H]2c2ccc(Cl)c(Cl)c2)cc1, the AC50 [2] is reported as 6.86 µM (active) and the IC50 [8] is reported as 0.794 µM (active).
In the case of C[C@H]1CN([C@@H](C)CO)C(=O)c2cccc(NC(=O)CCCCCC(=O)Nc3ccccc3N)c2O[C@H]1CN(C)Cc1ccc(Cl)c(Cl)c1, the AC50 [1] is reported as 3.18 µM (active).
With O=C1C(Br)=CC2([N+](=O)[O-])CCNC3=C(C4=NCCc5c[nH]c(c54)C3=O)C2=C1Br (stereo unspecified) the GI50 (SN12K1) was 3.3 µM (inactive), the GI50 (P388/ADR) was 0.579 µM (active) and the GI50 (P388) was 0.317 µM (active).
With C[C@H](CO)N1C[C@H](C)[C@H](CN(C)S(=O)(=O)c2ccc(F)cc2)Oc2ccc(NC(=O)Nc3ccc(C(F)(F)F)cc3)cc2CC1=O the AC50 [1] was 2.56 µM (active).
For COC(=O)c1ccc2c(=O)sc(N3CCC(C(N)=O)CC3)nc2c1, the IC50 [3] was > 66 µM (inactive) and the IC50 [4] was 52.6 µM (inactive).
In the case of COc1ccc(Cc2nn(C3OC(COC(C)=O)C(OC(C)=O)C(OC(C)=O)C3OC(C)=O)c(=S)n(-c3ccc(OC)cc3)c2=O)cc1 (stereo unspecified), the GI50 (SN12K1) is reported as > 100 µM (inactive), the GI50 (P388/ADR) is reported as > 100 µM (inactive) and the GI50 (P388) is reported as > 100 µM (inactive).
In the case of CCCN(CCC)C(=S)NC(=O)c1ccc(-c2ccccc2)cc1, the IC50 [3] is reported as > 66 µM (inactive), the IC50 [9] is reported as 36.7 µM (not active) and the IC50 [4] is reported as > 66 µM (inactive).
In the case of Cc1nc2ccccc2c(=O)n1Nc1ccc(C(=O)O)cc1, the GI50 (SN12K1) is reported as > 100 µM (inactive), the GI50 (P388/ADR) is reported as > 100 µM (inactive) and the GI50 (P388) is reported as > 100 µM (inactive).
With O=C1N=C2SCCN2/C1=C\c1ccccc1Cl the IC50 [3] was > 66 µM (inactive) and the IC50 [4] was > 66 µM (inactive).
For COC(=O)c1cccc(N[C@@H]2c3cc4c(cc3C(c3cc(OC)c(O)c(OC)c3)[C@H]3C(=O)OCC32)OCO4)c1 (stereo partly specified), the GI50 (SN12K1) was 0.23 µM (active), the GI50 (P388/ADR) was 0.271 µM (active) and the GI50 (P388) was 0.0103 µM (active).
In the case of O=C1NC(=O)C2C3C=CC(C12)C1C2C(=O)NC(=O)C2C31 (stereo unspecified), the GI50 (SN12K1) is reported as 85.3 µM (inactive), the GI50 (P388/ADR) is reported as 122 µM (inactive) and the GI50 (P388) is reported as 21 µM (inactive).
With Cc1noc(C)c1S(=O)(=O)Nc1cccc2c1O[C@H](CN(C)Cc1ccc(C(=O)Nc3ccccc3N)cc1)[C@H](C)CN([C@@H](C)CO)C2=O the AC50 [1] was 2.03 µM (active).
In the case of C[C@@H]1CN([C@@H](C)CO)C(=O)c2cccc(NC(=O)CCCCCC(=O)Nc3ccccc3N)c2O[C@H]1CN(C)Cc1ccccc1, the AC50 [1] is reported as 2.43 µM (active).
For CCOC(=O)NC1=C(N2CC2)C(=O)C(NC(=O)OCC)=C(N2CC2)C1=O [DIAZIQUONE], the GI50 (SN12K1) was 2.94 µM (inactive), the GI50 (P388/ADR) was 2.72 µM (inactive) and the GI50 (P388) was 1.77 µM (inactive).
For O=C(NCc1cccnc1)c1ccc2c(c1)N(Cc1ccccc1)CCS2, the AC50 [2] was 3.31 µM (active).
